According to ChEMBL document CHEMBL1201862, “PubChem BioAssay data set” (2004):
One block for each molecule: values may come before it. Activity calls are given as the source filed them.

Assays:
[1] = molecular target: Induced myeloid leukemia cell differentiation protein Mcl-1 (Homo sapiens, UniProt Q07820); type: functional
[2] = molecular target: Eukaryotic translation initiation factor 4E (Mus musculus, UniProt P63073); test: blockers of eIF4G binding by eIF4E – biochemical, TR-FRET, dose response (AID 855); type: functional;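 further: potency for disrupting eIF4E binding to eIF4GI seen as loss of FRET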
[3] = viability loss in THP-1 monocytes – THP-1 cells, cytotoxicity control for Vif-APOBEC3G degradation inhibitor project, dose response (AID 1117359); type: functional; details: THP-1
[4] = molecular target: Mu-type opioid receptor (Homo sapiens, UniProt P35372); type: functional, cell-based;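 further: U2OS cells with beta-arrestin recruitment to OPRM1 by beta-gal complementation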
[5] = molecular target: 5-hydroxytryptamine receptor 2A (Mus musculus, UniProt P35363); type: functional, cell-based;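 further: CHO-K1 cells with tagged receptor and beta-arrestin; agonist potency measured as compound-induced activation of the receptor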
[6] = HPDE-C7 pancreatic duct cell viability loss – fluorescence, HTS (AID 430); type: functional, cell-based; details: Homo sapiens
[7] = viability loss of HPDE-C7K cells – cell-based, fluorescence, HTS, primary screen (AID 431); type: functional; details: Homo sapiens
[8] = reduced cellular PGC1a acetyl-lysine signal – cell-based, cherry-picked samples, dose response (AID 720514); type: functional;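 further: potency may reflect raised or lowered acetylation signal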
[9] = blockers of HIV-1 envelope-mediated cell-cell fusion – cherry-pick, dose response (AID 652057); type: functional, cell-based
[10] = blockers of HIV-1 ZM109 envelope-driven cell-cell fusion – HeLa effector, CEM target cells, luciferase, cherry-pick, dose response (AID 652058); type: functional, cell-based;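 further: luciferase signal from HIV-1 Env mediated cell-cell fusion of effector and target cells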
[11] = molecular target: Paired box protein Pax-8 (Homo sapiens, UniProt Q06710); test: PAX8 transcriptional activity inhibition in RMG-I – RMG-I cells, luciferase, cherry-pick, dose response (AID 687027); type: functional, cell-based;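 further: luciferase reporter driven by Pax8 target thyroperoxidase promoter measured by SteadyGlo luminescence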
[12] = off-target signal loss in HeLa-CEM21 co-culture – HeLa F-luc CTL cells, cherry-picked, counter-screen for HIV-1 Env fusion inhibitor project, dose response (AID 652040); type: functional, cell-based;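 further: potency for signal decrease marking cytotoxic or nonspecific inhibition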
[13] = HIV-1 AD8 envelope cell-cell fusion blockers – cherry-pick, dose response (AID 652062); type: functional, cell-based;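 further: luciferase signal from cell-cell fusion driven by HIV-1 clade B AD8 Env; potency is for inhibitors of fusion seen as a drop in luminescence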
[14] = cytotoxicity in MITF-independent A375 cells – cell-based, CellTiter-Glo luminescence, dry powder, set 4, counter-screen for MITF inhibitor project, dose response (AID 624364); type: functional; details: A-375;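 further: A375 melanoma cells are MITF independent so this is a counter screen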
[15] = viability loss in MITF-independent A375 cells – cell-based, CellTiter-Glo luminescence, dry powder, set 2, counter-screen for MITF inhibitor project, dose response (AID 624489); type: functional; details: A-375;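 further: actives are compounds lowering A375 viability meaning general cytotoxicity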
[16] = toxicity toward HepG2 liver cells – cell-based, plate reader, cherry-pick, antagonist series, cytotoxicity control, dose response (AID 743416); type: functional
[17] = viability loss in HEK293 cells – cell-based, plate reader, cherry-picked samples, cytotoxicity control, dose response (AID 743446); type: functional
[18] = IC50 of Artemis nuclease activity blockers – biochemical, fluorescence intensity, dose response (AID 720701); type: functional;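 further: Artemis endonuclease enzyme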
[19] = viability of uninfected HEp-2 cells – cell-based, HTS, cytotoxicity control for RSV inhibitor project, dose response (AID 2410); type: functional; details: human respiratory syncytial virus
[20] = system: Streptococcus sp. 'group A'; test: Streptococcus pyogenes SK(-)GAS viability under kanamycin – luminescence, BacTiterGlo, confirmation, counter-screen for streptokinase expression inhibitor project, dose response (AID 1900); type: functional, organism-based
[21] = viability of PTEN-deleted HCT116 cells – cell-based, HCT116 PTEN knockout, dose response (AID 1047); type: functional;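 further: HCT116 colon tumor cells with PTEN knocked out; cells exposed to compound for 60 hours before readout; potency for loss of cell viability measured by luminescence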
[22] = viability of HCT116 lacking mutant beta-catenin – cell-based, human colon tumor, dose response (AID 1045); type: functional;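 further: HCT116 colon tumor cells with beta catenin knocked out; cells exposed to compound for 60 hours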
[23] = system: Streptococcus; test: GAS UMAA2166 growth inhibition – luminescence, BacTiterGlo, counter-screen for streptokinase expression inhibitor project, dose response (AID 1915); type: functional, organism-based;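 further: potency for reduction of bacterial viability or growth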
[24] = molecular target: T1, Low molecular weight phosphotyrosine protein phosphatase (Homo sapiens, UniProt P24666); type: functional; details: read-out: IC50_Mean;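 further: Dose-response confirmation assay measuring inhibition of LMPTP enzyme activity by fluorescence intensity read-out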
T1 sequence (P24666 whole entry): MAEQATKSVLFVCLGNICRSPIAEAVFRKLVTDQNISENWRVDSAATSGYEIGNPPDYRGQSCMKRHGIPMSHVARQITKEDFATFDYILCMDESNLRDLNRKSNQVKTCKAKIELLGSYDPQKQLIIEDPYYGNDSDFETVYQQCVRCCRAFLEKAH

[25] = general cell-killing toxicity readout – plate reader, dry powder samples, cytotoxicity control for PAX8 inhibitor project, dose response (AID 743021); type: functional, cell-based
[26] = OVCAR8 cell viability loss – plate reader, dry powder samples, PAX8 project, dose response (AID 743197); type: functional, cell-based; details: OVCAR-8
[27] = blockers of bursicon-stimulated LGR2 cAMP reporter – cell-based, HEK293, CRE-luciferase reporter, cherry pick, set 2, dose response (AID 743343); type: functional;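 further: transfected cells were stimulated with diluted bursicon conditioned medium after compound addition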
[28] = blockade of melanocortin 4 receptor signaling – cell-based, plate reader, cherry pick, counter-screen for LGR2 antagonist project, dose response (AID 743444); type: functional;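 further: transfected HEK 293 cells stimulated with alpha-MSH peptide; potency of inhibitors of the alpha-MSH evoked signal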
[29] = A2780 cell killing – plate reader, dry powder samples, cytotoxicity control, dose response (AID 743046); type: functional, cell-based
[30] = OVCAR-3 cell viability loss – plate reader, dry powder samples, PAX8 inhibitor project, dose response (AID 743044); type: functional, cell-based
[31] = molecular target: T2, Oxysterols receptor LXR-beta (Homo sapiens, UniProt P55055); type: functional, cell-based;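 further: agonist activity at LXR measured by a cell-based luminescence readout across a dose range, run as a counterscreen for daf-12 agonists; HEK293 cells with Gal4-LXR fusion and GAL4-driven luciferase reporter; potency for activation of Gal4-LXR reporter so compounds are agonists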
T2 sequence (P55055 whole entry): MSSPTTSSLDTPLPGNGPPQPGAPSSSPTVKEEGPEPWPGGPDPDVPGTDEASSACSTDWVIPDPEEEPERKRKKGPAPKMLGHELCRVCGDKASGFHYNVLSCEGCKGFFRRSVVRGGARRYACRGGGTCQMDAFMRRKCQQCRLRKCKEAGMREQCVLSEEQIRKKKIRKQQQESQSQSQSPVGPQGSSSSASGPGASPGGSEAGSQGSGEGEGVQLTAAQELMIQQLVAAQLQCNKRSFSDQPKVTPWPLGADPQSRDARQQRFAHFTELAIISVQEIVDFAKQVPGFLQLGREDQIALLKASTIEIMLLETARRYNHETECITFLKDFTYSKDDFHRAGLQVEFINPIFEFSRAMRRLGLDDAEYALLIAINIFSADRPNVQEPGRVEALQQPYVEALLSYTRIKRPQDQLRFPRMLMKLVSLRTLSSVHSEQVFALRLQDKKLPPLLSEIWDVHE

[32] = molecular target: T3, fMet-Leu-Phe receptor (Homo sapiens, UniProt P21462); test: formyl peptide receptor binders – dose response (AID 519); type: functional
T3 sequence (P21462 whole entry): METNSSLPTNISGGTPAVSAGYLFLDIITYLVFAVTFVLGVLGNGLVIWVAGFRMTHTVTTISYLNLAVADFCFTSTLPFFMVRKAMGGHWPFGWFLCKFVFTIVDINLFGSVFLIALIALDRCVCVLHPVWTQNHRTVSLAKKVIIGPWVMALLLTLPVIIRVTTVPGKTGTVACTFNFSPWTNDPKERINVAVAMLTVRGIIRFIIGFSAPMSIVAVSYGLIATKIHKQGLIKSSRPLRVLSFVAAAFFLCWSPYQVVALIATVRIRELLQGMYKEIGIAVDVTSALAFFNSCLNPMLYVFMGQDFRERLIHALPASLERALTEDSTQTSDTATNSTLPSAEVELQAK

Sequence of Paired box protein Pax-8 (Q06710 whole entry, the tested form may be a part): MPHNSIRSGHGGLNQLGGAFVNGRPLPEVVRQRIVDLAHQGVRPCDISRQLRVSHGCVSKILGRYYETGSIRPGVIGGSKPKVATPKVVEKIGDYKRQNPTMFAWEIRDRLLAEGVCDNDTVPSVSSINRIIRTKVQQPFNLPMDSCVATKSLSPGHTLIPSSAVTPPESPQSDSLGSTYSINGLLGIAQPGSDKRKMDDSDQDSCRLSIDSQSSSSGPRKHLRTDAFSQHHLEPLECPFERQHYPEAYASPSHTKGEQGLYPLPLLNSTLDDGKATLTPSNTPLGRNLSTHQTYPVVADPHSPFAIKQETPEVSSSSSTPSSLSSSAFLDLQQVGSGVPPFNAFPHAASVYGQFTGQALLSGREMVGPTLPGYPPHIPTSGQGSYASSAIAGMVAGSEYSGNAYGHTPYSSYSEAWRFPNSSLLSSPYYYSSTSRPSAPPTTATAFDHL
Sequence of 5-hydroxytryptamine receptor 2A (P35363 whole entry): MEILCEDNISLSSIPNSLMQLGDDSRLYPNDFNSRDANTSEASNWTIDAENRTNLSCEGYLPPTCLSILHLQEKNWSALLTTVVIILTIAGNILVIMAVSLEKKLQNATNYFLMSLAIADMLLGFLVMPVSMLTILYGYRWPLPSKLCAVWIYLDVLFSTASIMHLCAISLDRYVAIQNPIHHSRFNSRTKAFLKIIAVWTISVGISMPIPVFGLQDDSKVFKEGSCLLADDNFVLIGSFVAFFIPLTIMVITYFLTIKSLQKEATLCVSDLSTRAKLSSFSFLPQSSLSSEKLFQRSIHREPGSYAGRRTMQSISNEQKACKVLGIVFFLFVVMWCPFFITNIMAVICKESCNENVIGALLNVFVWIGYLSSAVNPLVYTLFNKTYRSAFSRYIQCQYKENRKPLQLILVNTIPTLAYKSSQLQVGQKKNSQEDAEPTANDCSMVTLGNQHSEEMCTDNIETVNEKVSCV
Sequence of Mu-type opioid receptor (P35372 whole entry): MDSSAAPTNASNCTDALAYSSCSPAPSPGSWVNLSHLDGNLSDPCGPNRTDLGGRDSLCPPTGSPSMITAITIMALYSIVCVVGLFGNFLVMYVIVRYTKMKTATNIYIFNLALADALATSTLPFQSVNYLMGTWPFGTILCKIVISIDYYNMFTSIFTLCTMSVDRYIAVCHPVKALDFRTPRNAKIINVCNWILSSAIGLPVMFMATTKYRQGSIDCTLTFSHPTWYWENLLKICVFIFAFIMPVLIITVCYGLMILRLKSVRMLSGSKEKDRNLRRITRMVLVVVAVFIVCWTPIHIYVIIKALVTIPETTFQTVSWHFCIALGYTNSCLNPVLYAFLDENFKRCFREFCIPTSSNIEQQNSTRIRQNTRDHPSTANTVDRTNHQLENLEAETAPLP
Sequence of Eukaryotic translation initiation factor 4E (P63073 whole entry): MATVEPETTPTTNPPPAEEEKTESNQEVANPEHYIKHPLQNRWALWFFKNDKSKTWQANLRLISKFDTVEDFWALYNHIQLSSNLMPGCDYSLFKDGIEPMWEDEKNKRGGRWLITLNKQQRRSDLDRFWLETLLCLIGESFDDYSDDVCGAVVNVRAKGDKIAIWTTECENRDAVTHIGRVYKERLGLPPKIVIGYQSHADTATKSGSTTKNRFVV
Sequence of Induced myeloid leukemia cell differentiation protein Mcl-1 (Q07820 whole entry): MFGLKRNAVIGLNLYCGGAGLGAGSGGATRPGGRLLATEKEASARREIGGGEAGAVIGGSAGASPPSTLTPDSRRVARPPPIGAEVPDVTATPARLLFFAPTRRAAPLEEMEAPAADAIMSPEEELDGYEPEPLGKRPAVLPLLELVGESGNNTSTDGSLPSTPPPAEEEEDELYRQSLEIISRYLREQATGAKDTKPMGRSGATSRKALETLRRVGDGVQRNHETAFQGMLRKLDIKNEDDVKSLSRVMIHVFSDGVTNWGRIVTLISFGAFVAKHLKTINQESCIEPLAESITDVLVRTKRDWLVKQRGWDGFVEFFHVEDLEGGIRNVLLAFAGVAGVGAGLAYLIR

IC50 [1]: 2.93 µM (active)
IC50 [2]: 50 µM (inactive)
SMILES: O=[N+]([O-])c1cc(CN2CCOCC2)c2cccnc2c1O
CC50 [3]: > 40 µM (active)

EC50 [4]: 92.7 µM (inactive)
EC50 [5]: 28.2 µM (inactive)
SMILES: Oc1cc2c(cc1O)[C@@H](c1ccccc1)CNCC2
CC50 [3]: > 40 µM (active)

SMILES: CN(Cc1cc2ccccc2nc1O)S(C)(=O)=O
EC50 [6]: > 20 µM (not active)
EC50 [7]: > 20 µM (not active)

SMILES: Oc1cc(CSc2ccccn2)nc(O)n1
AC50 [8]: 1.86 µM (active)

SMILES: COc1cc(/C=N/NS(=O)(=O)c2ccc(C)cc2)ccc1OCc1cccc(C(=O)O)c1
AC50 [9]: 2.17 µM (active)
AC50 [10]: 19.5 µM (active)
AC50 [11]: 13 µM (active)
AC50 [12]: 5.81 µM (active)
AC50 [13]: 6.48 µM (active)

SMILES: C=CCNC1=C(NCCCN(CC)CC)C(=O)c2ccccc2C1=O
AC50 [14]: 25.3 µM (active)
AC50 [15]: 17.9 µM (active)

SMILES: COc1ccc(NC(=O)Nc2ccc3c(c2)CC(=O)N([C@@H](C)CO)C[C@@H](C)[C@H](CN(C)Cc2ccncc2)O3)cc1
AC50 [16]: > 52 µM (inactive)
AC50 [17]: > 52 µM (inactive)

IC50 [18]: > 20 µM (inactive)
SMILES: CNc1nc(-c2c[nH]c3ccccc23)cs1

SMILES: O=C(NC1=C(c2ccc(OC(F)(F)F)cc2)C(=O)c2ccccc2C1=O)c1ccccc1
AC50 [14]: 28.5 µM (active)
AC50 [15]: 20.7 µM (active)

SMILES: O=[N+]([O-])c1ccc(/C=N/Nc2nc(-c3ccccc3)c3cc(Br)ccc3n2)o1
CC50 [19]: > 50 µM (active)
EC50 [20]: 0.703 µM (active)
EC50 [21]: 26.1 µM (active)
EC50 [22]: 29.7 µM (active)
EC50 [23]: 0.934 µM (active)
IC50 [24]: 80 µM (inactive)
IC50 [18]: 6.57 µM (active)

SMILES: COc1ccccc1C#Cc1ccc2c(c1)O[C@@H](CN(C)Cc1cccnc1)[C@H](C)CN([C@H](C)CO)S2(=O)=O
AC50 [11]: 2.04 µM (active)
AC50 [8]: 5.09 µM (active)
AC50 [25]: 21.8 µM (active)
AC50 [26]: 18.3 µM (active)

SMILES: Cc1ccc(C(=O)C2C(=O)C3CCC2C3)cc1 (stereo not given)
AC50 [27]: 8.6 µM (active)
AC50 [28]: 4.95 µM (active)
AC50 [17]: > 52 µM (inactive)

SMILES: C[C@@H]1CCCCO[C@H](CN(C)C(=O)Cc2ccccc2)[C@@H](C)CN([C@@H](C)CO)C(=O)c2cc(NS(=O)(=O)c3ccc(Cl)cc3)ccc2O1
AC50 [11]: 7.18 µM (active)
AC50 [29]: 48.6 µM (active)
AC50 [30]: 23.3 µM (active)
AC50 [26]: 39.2 µM (active)

EC50 [31]: > 67.5 µM (inactive)
SMILES: COc1ccccc1-c1noc(-c2cccs2)n1

EC50 [31]: > 67.5 µM (inactive)
SMILES: ON=C(CCc1ccccc1)c1ccccc1

Ki [32]: > 66.7 µM (inactive)
SMILES: CCOC(=O)C1CCN(Cc2ccc(C(=O)OC)cc2)CC1

IC50 [24]: 80 µM (inactive)
IC50 [18]: > 20 µM (inactive)
SMILES: Oc1cc(-c2ccccc2)nc2nc(-c3ccco3)nn12

Ki [32]: > 66.7 µM (inactive)
SMILES: CC1CCN(S(=O)(=O)c2ccc3c(c2)oc(=O)n3CC(=O)NCc2ccc3c(c2)OCO3)CC1
